What all share (type): in vivo
Data set [1] concerns flies (family Muscidae). The experiment in a line: Anti-procreant comparison tests (sexual sterility or oviposition inhibition). The conditions noted are these: for inducing sexual sterility or inhibiting oviposition: comparison tests, Examples 6-9; for activity in the method of the invention (ineffective compounds): general statement of the description. The method, then:
(§1) The compound to be tested was administered in a standard fly food containing 6 parts of sugar, 6 parts of powdered non-fat dry milk, and 1 part of powdered egg yolk. Treated food was prepared by mixing an appropriate amount of a solution or suspension of CBCP in acetone with a batch of the food. The acetone was evaporated (4-6 hours) and the dry material was repulverized.
Oviposition inhibition tests: Samples of treated food with a container of water were placed in cages containing 100 newly-emerged adult flies (family Muscidae). After the flies had been exposed to the treated diet for 6-7 days, 1/2 inch of moist standard fly larva-rearing medium (CSMA) in souffle cups was placed in the cages for oviposition. After 4-6 hours, the cup was removed and examined for eggs. If no eggs were laid, the medium was offered again at intervals of 1 or 2 days until it had been offered three times or the flies had oviposited.
(§2) Chemosterilancy tests: If eggs were laid in the above tests, the cups were filled with water and stirred to break up the egg masses. A random sample of 100 eggs from each cup was collected and placed on a small piece of black cloth which was then laid on top of moist larva-rearing medium in a rearing container. Observations were made to determine percentage of egg hatch and pupal development.
These flies were maintained on untreated fly food. After 5 days, cups containing the larval-rearing medium was provided as previously described and a 100-egg sample was collected and place on moist larve-rearing medium. About a week after oviposition, examination was made to determine the percentage of hatched eggs and of pupae developed.
For purpose of comparison the above-described tests were applied to 2-benzyl-4-t-butylphenol and 2-(α-methylbenzyl)-4-t-butylphenol.
For purposes of comparison the above-described tests were applied to 2,6-di-t-butyl-4-(4-methoxybenzyl) phenol and 2,6-di-t-butyl-4-(α-methyl-4-methoxybenzyl)phenol, both compounds being ineffective in inducing sexual sterility or in inhibiting oviposition.
For purposes of comparison the following compounds were tested and found to be ineffective in inducing sexual sterility or in inhibiting oviposition: 2-(4-methoxybenzyl)-3,4-methylenedioxyphenol, (α-methylbenzyl)-3,4-methylenedioxy-6-methoxybenzene, (α,α-dimethylbenzyl)-3,4-methylenedioxy-6-methoxybenzene, (α,α-dimethylbenzyl)-3,4-methylenedioxy-6-ethoxybenzene, (α,α-dimethylbenzyl)-3,4-methylenedioxy-6-n-propoxybenzene, (α,α-dimethylbenzyl)-3,4-methylenedioxy-6-n-butoxybenzene, (α,α-dimethylbenzyl)-3,4-methylenedioxy-6-n-pentoxybenzene, (α-vinylbenzyl)-3,4-methylenedioxy-6-methoxybenzene, (α-vinylbenzyl)-3,4-methylenedioxy-6-ethoxybenzene, (α-vinylbenzyl)-3,4-methylenedioxy-6-n-propoxybenzene.

For data set [2], the system named is early fourth-stage larvae of the common malaria mosquito (Anopheles quadrimaculatus). The experiment in a line: Growth-inhibition tests on mosquito larvae. The settings on record: in water; corrected by Abbott's formula. The method, then: The compound to be tested was added to one liter of water until the final concentration thereof was a growth-inhibiting amount. Fifty early fourth-stage larvae of the common malaria mosquito (Anopheles quadrimaculatus) were placed on this water. Larval food was administered daily. Dead larvae and pupae were removed, counted, and discarded daily. Live pupae were removed, rinsed, and transferred to a cup of distilled water. The cup was placed in an emergence cage, and the emerging adults, if any, were maintained on a sugar-water diet.
The effectiveness of the compound in inhibiting growth was determined by adding the number of dead larvae and pupae and the number of adults that were dead, unable to complete eclosion, and malformed. This sum was corrected by Abbott's formula (to adjust for the number of larvae or pupae which would die naturally) and designated as the GI (growth inhibition). The results are expressed as GI-90, i.e., the concentration of growth inhibitor in ppm that would prevent and/or retard growth in 90% of the treated larvae.

Data set [3] has as its system flies (family Muscidae). Kind of data set: Chemosterilancy tests (egg hatch and pupal development; Examples 6-9). How it is done: as §1, §2
The procedure outlined in Example 6 was followed using a Group II compound.
The procedure outlined in Example 6 was followed using Group III compounds. The results are summarized below:
The procedure outlined in Example 6 was followed substituting a Group IV compound for those of Group I. The table below provides a summary of results.

The test system of data set [4] is flies (family Muscidae). The experiment in a line: Oviposition inhibition tests (treated fly food; Examples 6-9). The method, then:
The compound to be tested was administered in a standard fly food containing 6 parts of sugar, 6 parts of powdered non-fat dry milk, and 1 part of powdered egg yolk. Treated food was prepared by mixing an appropriate amount of a solution or suspension of CBCP in acetone with a batch of the food. The acetone was evaporated (4-6 hours) and the dry material was repulverized. Oviposition inhibition tests: Samples of treated food with a container of water were placed in cages containing 100 newly-emerged adult flies (family Muscidae). After the flies had been exposed to the treated diet for 6-7 days, 1/2 inch of moist standard fly larva-rearing medium (CSMA) in souffle cups was placed in the cages for oviposition. After 4-6 hours, the cup was removed and examined for eggs. […] The procedure outlined in Example 6 was followed using a Group II compound. The procedure outlined in Example 6 was followed using Group III compounds. The results are summarized below: The procedure outlined in Example 6 was followed substituting a Group IV compound for those of Group I. The table below provides a summary of results.

Regarding “2-(4-methoxybenzyl)-3,4-methylenedioxyphenol [reference compound]”, the “inducing sexual sterility or inhibiting oviposition” value with flies (family Muscidae) [1] was “ineffective”.

Turning to `CC(c1ccccc1)c1cc(C(C)(C)C)ccc1O` (stereo not drawn) [2-(α-methylbenzyl)-4-t-butylphenol, reference compound], in the data set on flies (family Muscidae) [1], the “inducing sexual sterility or inhibiting oviposition” value is “ineffective” and the “activity in the method of the invention (ineffective compounds)” value (from here on “activity in the method of the invention”) is reported as “ineffective”.

With `CC(C)(C)c1ccc(O)c(Cc2ccccc2)c1` [2-benzyl-4-t-butylphenol, reference compound], in the data set with flies (family Muscidae) [1], the “inducing sexual sterility or inhibiting oviposition” value is reported as “ineffective” and the “activity in the method of the invention” value is reported as “ineffective”.

Take `CC(C)(C)c1cc(C(C)(C)c2ccccc2)cc(C(C)(C)C)c1O` [4-(α,α-dimethylbenzyl)-2,6-di-t-butylphenol, reference compound]: in the data set on flies (family Muscidae) [1], the “activity in the method of the invention” value is reported as “ineffective”.

For `COc1ccc(Cc2cc3c(cc2O)OCO3)cc1` [6-(4-methoxybenzyl)-3,4-methylenedioxyphenol, reference compound], the “activity in the method of the invention” value in the data set on flies (family Muscidae) [1] is “ineffective”.

For `CCCCOc1cc2c(cc1C(C)(C)c1ccccc1)OCO2` [AA, (α, 60 -Dimethylbenzyl)-3,4-methylenedioxy-6-n-butoxybenzene], the “inducing sexual sterility or inhibiting oviposition” value in the data set with flies (family Muscidae) [1] is given as “ineffective”.

`COc1ccc(C(C)c2cc(C(C)(C)C)c(O)c(C(C)(C)C)c2)cc1` (stereo not drawn) [Compound G, 2,6-Di-t-butyl-4-(α-methyl-4-methoxybenzyl)phenol]: in the data set on flies (family Muscidae) [1], the “inducing sexual sterility or inhibiting oviposition” value is recorded as “ineffective” and the “activity in the method of the invention” value was “ineffective”.

As for `COc1ccc(Cc2cc(C(C)(C)C)c(O)c(C(C)(C)C)c2)cc1` [F, 2,6-Di-t-butyl-4-(4-methoxybenzyl)phenol], the “GI-90 (concentration of growth inhibitor that would prevent and/or retard growth in 90% of the treated larvae)” value in data set [2] turned out to be 0.042 ppm. Moreover, in the data set on flies (family Muscidae) [1], the “inducing sexual sterility or inhibiting oviposition” value is “ineffective” and the “activity in the method of the invention” value was “ineffective”.

As to `COc1ccc(Cc2cc3c(cc2OC(C)C)OCO3)cc1` [O, (4-Methoxybenzyl)-3,4-methylenedioxy-6-iso-propoxybenzene], the values for the Egg hatch with flies (family Muscidae) [3] (0.05% in food) and with flies (family Muscidae) [3] (0.25% in food) were 48% and 0%, respectively. Moreover, the Pupal development in the data set on flies (family Muscidae) [3] (0.05% in food) worked out at 48%; with flies (family Muscidae) [3] (0.25% in food), 0%. In addition, the results for the “Mortality, parent generation” value in the data set on flies (family Muscidae) [4] (0.05% in food), in the data set on flies (family Muscidae) [4] (0.25% in food) and with flies (family Muscidae) [4] (0.5% in food) were 0%, 0% and 80%, respectively. Further, the “GI-90 (concentration of growth inhibitor that would prevent and/or retard growth in 90% of the treated larvae)” value in data set [2] came out at 0.8 ppm.

As for `CCCCOc1cc2c(cc1Cc1ccc(OC)cc1)OCO2` [P, (4-Methoxybenzyl)-3,4-methylenedioxy-6-n-butoxybenzene], the Egg hatch in the data set with flies (family Muscidae) [3] (0.05% in food) is 36%; in the data set on flies (family Muscidae) [3] (0.1% in food) it was 10%; in the data set with flies (family Muscidae) [3] (0.25% in food), 0%; in the data set on flies (family Muscidae) [3] (0.5% in food) it was 0%. Moreover, the Pupal development is given as 36% with flies (family Muscidae) [3] (0.05% in food), 10% in the data set with flies (family Muscidae) [3] (0.1% in food), 0% in the data set on flies (family Muscidae) [3] (0.25% in food) and 0% in the data set with flies (family Muscidae) [3] (0.5% in food). In addition, the “Mortality, parent generation” value in the data set with flies (family Muscidae) [4] (0.05% in food), in the data set with flies (family Muscidae) [4] (0.1% in food), in the data set with flies (family Muscidae) [4] (0.25% in food) and in the data set on flies (family Muscidae) [4] (0.5% in food) was 0% in each case. Further, in data set [2], the “GI-90 (concentration of growth inhibitor that would prevent and/or retard growth in 90% of the treated larvae)” value amounted to 0.047 ppm.

With `COc1ccc(Cc2cc3c(cc2OCC(C)C)OCO3)cc1` [Q, (4-Methoxybenzyl)-3,4-methylenedioxy-6-iso-butoxybenzene], the Egg hatch with flies (family Muscidae) [3] (0.05% in food) turned out to be 28%; in the data set with flies (family Muscidae) [3] (0.1% in food), 0%; with flies (family Muscidae) [3] (0.25% in food) it was 0%. For the same compound, the Pupal development is listed as 28% with flies (family Muscidae) [3] (0.05% in food), 0% in the data set on flies (family Muscidae) [3] (0.1% in food) and 0% with flies (family Muscidae) [3] (0.25% in food). Besides, the “Mortality, parent generation” value with flies (family Muscidae) [4] (0.05% in food) is on record as 0%; with flies (family Muscidae) [4] (0.1% in food) it was 0%; with flies (family Muscidae) [4] (0.25% in food) it was 0%; in the data set with flies (family Muscidae) [4] (0.5% in food) it was 90%. For the same compound, the “GI-90 (concentration of growth inhibitor that would prevent and/or retard growth in 90% of the treated larvae)” value in data set [2] was determined as 0.082 ppm.

For the compound `COc1ccc(Cc2cc3c(cc2OCCC(C)C)OCO3)cc1` [S, (4-Methoxybenzyl)-3,4-methylenedioxy-6-iso-pentoxybenzene], the Egg hatch was found to be 55% in the data set on flies (family Muscidae) [3] (0.05% in food), 6% with flies (family Muscidae) [3] (0.1% in food), 0% with flies (family Muscidae) [3] (0.25% in food) and 0% with flies (family Muscidae) [3] (0.5% in food). The Pupal development with flies (family Muscidae) [3] (0.05% in food) is listed as 55%; in the data set on flies (family Muscidae) [3] (0.1% in food) it was 6%; in the data set with flies (family Muscidae) [3] (0.25% in food), 0%; with flies (family Muscidae) [3] (0.5% in food), 0%. The “Mortality, parent generation” value in the data set with flies (family Muscidae) [4] (0.05% in food), in the data set on flies (family Muscidae) [4] (0.1% in food), with flies (family Muscidae) [4] (0.25% in food) and in the data set with flies (family Muscidae) [4] (0.5% in food) was 0% throughout. In data set [2], the “GI-90 (concentration of growth inhibitor that would prevent and/or retard growth in 90% of the treated larvae)” value was found to be 0.036 ppm.

Consider `CCCOc1cc2c(cc1C(C)c1ccccc1)OCO2` (stereo not drawn) [U, (α-Methylbenzyl)-3,4-methylenedioxy-6-n-propoxybenzene], for which the Egg hatch with flies (family Muscidae) [3] (0.025% in food) was found to be 42%; in the data set on flies (family Muscidae) [3] (0.05% in food) it was 0%; in the data set with flies (family Muscidae) [3] (0.1% in food) it was 0%; with flies (family Muscidae) [3] (0.25% in food), 0%; in the data set on flies (family Muscidae) [3] (0.5% in food) it was 0%; in the data set with flies (family Muscidae) [3] (1.0% in food) it was 0%. Besides, the Pupal development stood at 42% in the data set on flies (family Muscidae) [3] (0.025% in food); 0% in the data set with flies (family Muscidae) [3] (0.05% in food); 0% with flies (family Muscidae) [3] (0.1% in food); 0% in the data set with flies (family Muscidae) [3] (0.25% in food); 0% in the data set with flies (family Muscidae) [3] (0.5% in food); 0% in the data set with flies (family Muscidae) [3] (1.0% in food). The “Mortality, parent generation” value in the data set on flies (family Muscidae) [4] (0.025% in food), in the data set on flies (family Muscidae) [4] (0.05% in food), in the data set with flies (family Muscidae) [4] (0.1% in food), in the data set with flies (family Muscidae) [4] (0.25% in food), with flies (family Muscidae) [4] (0.5% in food) and with flies (family Muscidae) [4] (1.0% in food) was 0% in each case. The “GI-90 (concentration of growth inhibitor that would prevent and/or retard growth in 90% of the treated larvae)” value in data set [2] was determined as 0.3 ppm.

In the data set on flies (family Muscidae) [3] (0.5% in food), `CCCCOc1cc2c(cc1C(C)c1ccccc1)OCO2` (stereo not drawn) [V, (α-Methylbenzyl)-3,4-methylenedioxy-6-n-butoxybenzene] showed an Egg hatch of 34% and a Pupal development of 34%. In addition, in the data set on flies (family Muscidae) [4] (0.5% in food), the “Mortality, parent generation” value is 0%. The “GI-90 (concentration of growth inhibitor that would prevent and/or retard growth in 90% of the treated larvae)” value in data set [2] is recorded as 0.097 ppm.

For the compound “(α,α-Dimethylbenzyl)-3,4-methylenedioxy-6-methoxybenzene”, the “inducing sexual sterility or inhibiting oviposition” value in the data set on flies (family Muscidae) [1] is listed as “ineffective”.

Consider “(α-Vinylbenzyl)-3,4-methylenedioxy-6-n-propoxybenzene [GG]”, for which the “inducing sexual sterility or inhibiting oviposition” value with flies (family Muscidae) [1] is “ineffective”.

The values are drawn from patent publication US4357344A, “Polybutylbenzylphenols and benzyl-3,4-methylenedioxybenzenes in insect population control” (The United States of America as represented by the …, priority 1979, dated 1982).
